Two compounds from patent US20110237640A1, “PYRAZOLE PHENYL DERIVATIVES” (priority 2004, published 2011) can be followed below.

One may read the EC50 as the midpoint of the concentration-response curve. Broadly, the IC50 is the concentration that gives 50% inhibition. The low end stands for greater potency, the high end for weaker potency.

For experiment [1], the target named is T1, pFA-PPARα-LBD in BHK21 cells (Homo sapiens, UniProt Q07869).
T1 construct: PPARα (aa 167 to 469); expressed in transfected cells; host or cells: BHK21 (ATCC CCL10)
T1 sequence (Q07869 167-468 limits assumed): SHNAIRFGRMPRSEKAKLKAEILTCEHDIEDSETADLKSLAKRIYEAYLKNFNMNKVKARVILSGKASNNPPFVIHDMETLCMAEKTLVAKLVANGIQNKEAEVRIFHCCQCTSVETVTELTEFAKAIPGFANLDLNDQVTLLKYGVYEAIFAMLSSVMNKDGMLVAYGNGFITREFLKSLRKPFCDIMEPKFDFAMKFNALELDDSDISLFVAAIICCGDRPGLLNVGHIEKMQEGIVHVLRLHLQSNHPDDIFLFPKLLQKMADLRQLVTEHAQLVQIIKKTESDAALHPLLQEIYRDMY
The experiment can be described thus: Luciferase transcriptional reporter gene assay (transactivation), PPARα. The format is cell-based. Particulars: for EC50: 24 hours with compound; for PPARα maximal activation (% of reference compound): reference PPARα compound set to 100%. From the text: (§1) Full-length cDNA clones for humans PPARδ and PPARα and mouse PPARγ were obtained by RT-PCR from human adipose and mouse liver cRNA, respectively, cloned into plasmid vectors and verified by DNA sequencing. Bacterial and mammalian expression vectors were constructed to produce glutathione-s-transferase (GST) and Gal4 DNA binding domain proteins fused to the ligand binding domains (LBD) of PPARδ (aa 139 to 442), PPARγ (aa 174 to 476) and PPARα (aa 167 to 469). To accomplish this, the portions of the cloned sequences encoding the LBDs were amplified from the full-length clones by PCR and then subcloned into the plasmid vectors. Final clones were verified by DNA sequence analysis.
(§2) Baby hamster kidney cells (BHK21 ATCC CCL10) were grown in DMEM medium containing 10% FBS at 37° C. in a […]:5% CO2 atmosphere. Cells were seeded in 6 well plates at a density of 10^5 cells/well and then batch-transfected with either the pFA-PPARδ-LBD, pFA-PPARγ-LBD or pFA-PPARα-LBD expression plasmids plus a reporter plasmid (to monitor transfection efficiency). […] Six hours following transfection, the cells were harvested by trypsinization and seeded in 96 well plates at a density of 10^4 cells/well. After 24 hours the medium was removed and replaced with 100 ul of phenol red-free medium containing the corresponding test compounds or control ligands (at a final DMSO concentration of 0.1%). Following incubation of the cells for 24 hours with compounds, 50 μl of the supernatant was discarded and then 50 μl of Luciferase Constant—Light Reagent (Roche Molecular Biochemicals) was added to lyse the cells and initiate the luciferase reaction. Luminescence for luciferase was measured in a Packard TopCount. Transcriptional activation in the presence of a test substance was expressed as fold-activation over cells incubated in the absence of the substance. The signals were normalized against plate-specific controls (DMSO alone) and the fold-stimulation of luciferase activity observed with specific and selective PPARα((2(S)-2-(2-benzoyl-phenylamino)-3-{4-[2-(5-methyl-2-phenyl-oxazol-4-yl)-ethoxy]-phenyl}-propionic acid), PPARγ (Rosiglitazone) and PPARδ ({2-methyl-4-[4-methyl-2-(4-trifluoromethyl-phenyl)-thiazol-5-ylmethylsulfanyl]-phenoxy}-acetic acid) reference compounds was set to 100%. EC50 values were calculated using the XLfit program (ID Business Solutions Ltd. UK).

Experiment [2] concerns the target T2, pFA-PPARδ-LBD in BHK21 cells (Homo sapiens, UniProt Q03181).
T2 construct: PPARδ (aa 139 to 442); expressed in transfected cells; host or cells: BHK21 (ATCC CCL10)
T2 sequence (Q03181 139-441 limits assumed): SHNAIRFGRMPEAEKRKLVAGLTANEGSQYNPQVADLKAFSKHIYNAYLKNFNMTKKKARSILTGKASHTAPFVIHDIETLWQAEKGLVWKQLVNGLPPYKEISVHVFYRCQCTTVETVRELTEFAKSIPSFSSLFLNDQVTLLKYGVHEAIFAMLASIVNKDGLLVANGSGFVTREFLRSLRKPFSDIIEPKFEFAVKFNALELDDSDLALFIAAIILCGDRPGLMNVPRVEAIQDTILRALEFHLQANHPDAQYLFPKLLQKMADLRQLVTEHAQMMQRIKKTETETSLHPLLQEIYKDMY
The experiment can be described thus: Luciferase transcriptional reporter gene assay (transactivation), PPARδ. Particulars: for EC50: 24 hours with compound; for PPARδ efficacy relative to reference compound: reference PPARδ compound set to 100%. The experiment is classed as cell-based.
Text: as §1, §2

In experiment [3] the target is T3, GST-PPARα-LBD fusion protein (Homo sapiens, UniProt Q07869).
T3 construct: PPARα (aa 167 to 469); made in house; host or cells: E. coli BL21(pLysS)
T3 sequence (Q07869 167-468 limits assumed): T1 sequence (Q07869 167-468 limits assumed)
The experiment is described as follows: PPARα radioligand binding assay (SPA).
Text: as §1
(§3) Induction, expression, and purification of GST-LBD fusion proteins were performed in E. coli strain BL21(pLysS) cells by standard methods (Ref: Current Protocols in Molecular Biology, Wiley Press, edited by Ausubel et al.).
PPARαreceptor binding was assayed in TKE50 (50 mM Tris-HCl, pH 8, 50 mM KCl, 2 mM EDTA, 0.1 mg/ml fatty acid-free BSA and 10 mM DTT). […] All binding assays were performed in 96 well plates and the amount of bound ligand measured on a Packard TopCount using OptiPlates (Packard). Nonspecific binding was determined in the presence of 10^−4 M unlabelled compound. […]

For experiment [4], the target named is T4, GST-PPARγ-LBD fusion protein (Mus musculus, UniProt P37238).
T4 construct: PPARγ (aa 174 to 476); made in house; host or cells: E. coli BL21(pLysS)
T4 sequence (P37238 204-505): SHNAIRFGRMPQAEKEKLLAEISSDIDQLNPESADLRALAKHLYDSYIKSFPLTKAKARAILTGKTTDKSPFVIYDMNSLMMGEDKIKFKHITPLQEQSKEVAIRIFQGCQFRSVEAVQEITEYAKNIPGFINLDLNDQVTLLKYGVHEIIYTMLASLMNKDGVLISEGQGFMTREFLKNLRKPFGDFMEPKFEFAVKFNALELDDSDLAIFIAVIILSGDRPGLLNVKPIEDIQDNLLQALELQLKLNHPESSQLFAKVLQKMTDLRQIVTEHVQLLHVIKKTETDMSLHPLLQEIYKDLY
The experiment is described as follows: PPARγ radioligand binding assay (SPA).
Text: as §1, §3
PPARγ receptor binding was assayed in TKE50 (50 mM Tris-HCl, pH 8, 50 mM KCl, 2 mM EDTA, 0.1 mg/ml fatty acid-free BSA and 10 mM DTT). […] All binding assays were performed in 96 well plates and the amount of bound ligand measured on a Packard TopCount using OptiPlates (Packard). Nonspecific binding was determined in the presence of 10^−4 M unlabelled compound. […]

Experiment [5] has as its target T5, PPARδ receptor (GST-PPAR-LBD fusion protein) (Homo sapiens, UniProt Q03181).
T5 construct: PPARδ (aa 139 to 442); made in house; host or cells: E. coli BL21(pLysS)
T5 sequence (Q03181 139-441 limits assumed): T2 sequence (Q03181 139-441 limits assumed)
The experiment can be described thus: PPARδ radioligand binding assay (SPA).
Text: as §1, §3
PPARδ receptor binding was assayed in HNM10 (50 mM Hepes, pH 7.4, 10 mM NaCl, 5 mM MgCl2, 0.15 mg/ml fatty acid-free BSA and 15 mM DTT). […] Radioligand was added and the reaction incubated at RT for 1 h and scintillation proximity counting performed in the presence of test compounds was determined. All binding assays were performed in 96 well plates and the amount of bound ligand was measured on a Packard TopCount using OptiPlates (Packard). […]

As for `Cc1cc(OCc2cc(-c3ccc(OC(F)(F)F)cc3)nn2C)ccc1OC(C)(C)C(=O)O` [Example 1, 2-Methyl-2-{2-methyl-4-[2-methyl-5-(4-trifluoromethoxy-phenyl)-2H-pyrazol-3-ylmethoxy]-phenoxy}-propionic acid], the half-maximal effective concentration (EC50) in experiment [1] was found to be 380 nM; in experiment [2], 200 nM. In addition, in experiment [1], the “PPARα maximal activation (% of reference compound)” value is 100%. Also, the “PPARδ efficacy relative to reference compound” value in experiment [2] stood at 59%. Further, the IC50 is 166 nM in experiment [3], ≥ 10000 nM in experiment [4] and 144 nM in experiment [5].

As for `Cc1cc(OCc2cc(-c3ccc(OC(F)(F)F)cc3)nn2CC(F)(F)F)ccc1OC(C)(C)C(=O)O` [Example 6, 2-Methyl-2-{2-methyl-4-[2-(2,2,2-trifluoro-ethyl)-5-(4-trifluoromethoxy-phenyl)-2H-pyrazol-3-ylmethoxy]-phenoxy}-propionic acid], the EC50 is 160 nM in experiment [1] and 96 nM in experiment [2]. Besides, the “PPARα maximal activation (% of reference compound)” value in experiment [1] was 120%. For the same compound, in experiment [2], the “PPARδ efficacy relative to reference compound” value amounted to 140%. The IC50 in experiment [3] is 212 nM; in experiment [4], ≥ 10000 nM; in experiment [5], 222 nM.
